Reference: ChEMBL document CHEMBL1153821, “Identification of novel inhibitors of HCV RNA-dependent RNA polymerase by pharmacophore-based virtual screening and in vitro evaluation” (Bioorg Med Chem, 2009)
Active and inactive are the calls of the source. The rule behind the calls is not given here.

The compounds below were run on Hepatitis C virus (assay: Inhibition of HCV1b NS5B polymerase at 100 uM after 2 hrs by RdRp activity assay). Settings: not given.
Set-up: species or system Hepatitis C virus subtype 1b

| SMILES | inhibition at 100 µM [%] |
| --- | --- |
| Nc1ncnc2c1ncn2/C=C/C(=O)c1ccccc1 | > 80 |
| Nc1ncnc2c1ncn2/C=C/C(=O)c1ccco1 | > 80 |
| O=C(Nc1cccn(Cc2ccc(Cl)c(Cl)c2)c1=O)Sc1cccc(C(F)(F)F)c1 | > 80 |

The compounds below were run on Hepatitis C virus (assay: Inhibition of HCV1b NS5B polymerase assessed as [alpha-32P]UTP incorporation by non-competitive double reciprocal plot). Settings: Hepatitis C virus subtype 1b.

| SMILES | Activity |
| --- | --- |
| Nc1ncnc2c1ncn2/C=C/C(=O)c1ccccc1 | Active |
| Nc1ncnc2c1ncn2/C=C/C(=O)c1ccco1 | Active |
| O=C(Nc1cccn(Cc2ccc(Cl)c(Cl)c2)c1=O)Sc1cccc(C(F)(F)F)c1 | Active |

The compounds below were run on Hepatitis C virus (assay: Inhibition of HCV1b NS5B polymerase after 2 hrs by RdRp activity assay). Settings: not given.
Set-up: species or system Hepatitis C virus subtype 1b

| SMILES | IC50 [µM] |
| --- | --- |
| Nc1ncnc2c1ncn2/C=C/C(=O)c1ccccc1 | 20 |
| Nc1ncnc2c1ncn2/C=C/C(=O)c1ccco1 | 20 |
| O=C(Nc1cccn(Cc2ccc(Cl)c(Cl)c2)c1=O)Sc1cccc(C(F)(F)F)c1 | 20 |
